Converted amounts (≈) assume the structure as drawn. Where two headings read alike, the source gives them in different places.
What was measured:
[1] = system: VSV, vaccinia and herpes simplex-1 (KOS); format: cell-based, vaccinia and herpes simplex-1 (KOS) viruses; conditions: for Antiviral activity of congeners: at 100 μg/ml (the highest level tested), PRK cells; for Antiviral activity of enantiomers and racemate: VSV/PRK, vaccinia/PRK, herpes simplex-1 (KOS)/PRK
Stability = format: physicochemical
DNA viruses; RNA viruses = conditions: known from literature; cited from earlier work
[2] = cited from earlier work
Vaccinia = test: microbe, parasite or virus in culture; format: cell-based; conditions: Orthopoxvirus vaccinia, read-out: ID50
Vesicular stomatitis = test: microbe, parasite or virus in culture; format: cell-based; conditions: read-out: ID50
Polio-1 = test: microbe, parasite or virus in culture; format: cell-based, polio virus type 1; conditions: read-out: ID50
Coxsackie B-4 = format: cell-based, Coxsackie B-4 virus; conditions: HeLa cells; 100 CCID50; read-out: ID50 (the source's name)
Description: The antiviral activity of (S)-DHPA was explored in a variety of cell cultures and with a variety of DNA and RNA viruses such as listed in Table 1. The cells of each cell culture were inoculated with a certain virus in a dose of about 100 CCID50, that is about 100 times the dose needed to infect 50% of the cells. One hour after inoculation, (S)-DHPA was added in varying doses from zero to 40 μg/ml and sometimes to more than 200 μg/ml. For each virus-cell system, the ID50 of (S)-DHPA, that is the dose of (S)-DHPA needed to suppress the cytopathic effect of the virus by 50%, was determined. This cytopathic effect (CPE) was measured in the untreated virus-infected cell cultures [(S)-DHPA dose 0] and recorded as soon as it reached completion (according to the method described by L. J. Rosenthal and I. L. Shechmaister, in "Tissue Culture", page 510, Academic Press, New York, 1973).

Measles = test: microbe, parasite or virus in culture; format: cell-based; conditions: Measles morbillivirus, Vero; read-out: ID50 (the source's name)
Sindbis = test: microbe, parasite or virus in culture; format: cell-based; conditions: BHK, read-out: ID50 (the source's name)
[3] = system: vesicular stomatitis virus; test: microbe, parasite or virus in culture; format: cell-based; conditions: HSF, read-out: Decrease of virus titer compared with control
[4] = system: vesicular stomatitis virus; format: in vivo, NMRI mice; conditions: for Final number of surviving mice: control 37.5%
Acute toxicity in mice = format: in vivo
adenosine deaminase = adenosine deaminase (Bos taurus, UniProt P56658); test: Deamination of ara-A by adenosine deaminase of calf intestinal mucosa (FIG. 3, FIG. 4); format: biochemical; conditions: for Decrease in absorbance at 265 nm (extent of deamination): FIG. 3A
Description: FIG. 3 is a graphical representation showing the inhibitory effect of (S)-DHPA on deamination of ara-A by adenosine deaminase of calf intestinal mucosa. Deamination of ara-A was measured according to the method of Kalckar (compare J. Biol. Chem., 167, 461, […]), modified by Trams and Lauter (compare Biochem. J., 152, 681, 1975). The extent of deamination is equivalent to the decrease of absorbance at λ (wavelength)=265 nm. The decrease in absorbance at 265 nm was 0.11 if 50 nmol of ara-A were used, and was 0.16 if 100 nmol of ara-A were used (FIG. 3A).

vaccinia virus = format: cell-based; conditions: for Virus yield: (S)-DHPA 30 μg/ml, ara-A 3 μg/ml, or both
[5] = repeated doses of 0.4 mg/mouse (about 27 mg/kg)
[6] = 1 day after infection, control 3.6
[7] = 2 days after infection, control 5.0
[8] = 3 days after infection, control 5.3

Chain of adenosine deaminase (P56658 whole entry): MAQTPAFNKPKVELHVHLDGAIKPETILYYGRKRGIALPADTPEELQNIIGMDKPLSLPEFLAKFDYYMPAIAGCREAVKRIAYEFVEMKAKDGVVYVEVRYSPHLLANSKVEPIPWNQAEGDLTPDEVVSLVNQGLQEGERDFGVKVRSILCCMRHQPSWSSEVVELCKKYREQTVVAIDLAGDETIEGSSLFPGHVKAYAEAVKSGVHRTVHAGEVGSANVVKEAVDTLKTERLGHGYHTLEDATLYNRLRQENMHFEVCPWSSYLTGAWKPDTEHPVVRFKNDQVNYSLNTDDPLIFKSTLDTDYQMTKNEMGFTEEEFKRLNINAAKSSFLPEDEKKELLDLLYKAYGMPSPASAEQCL

In the case of Nc1ncnc2c1ncn2CCC(O)CO (racemic) [RS-9-(3,4-dihydroxybutyl)-adenine], the “Antiviral activity of congeners” value [1] is reported as “did not demonstrate an antiviral activity”.
With Nc1ncnc2c1ncn2CCCO [9-(3-hydroxypropyl)adenine] the “Antiviral activity of congeners” value [1] was “did not demonstrate an antiviral activity”.
In the case of O=c1ccn(C[C@H](O)CO)c(=O)[nH]1 [S-1-(2,3-dihydroxypropyl)uracil], the “Antiviral activity of congeners” value [1] is reported as “did not demonstrate an antiviral activity”.
With Nc1ncnc2c1ncn2C[C@@H](O)CO [(R)-DHPA] the “Antiviral activity of enantiomers and racemate” value ([1]; listed as R-enantiomeric form) was “not”.
For Cc1c[nH]c(=O)n(C[C@H](O)CO)c1=O [S-3-(2,3-dihydroxypropyl)thymine], the “Antiviral activity of congeners” value [1] was “did not demonstrate an antiviral activity”.
For Nc1ncnc2c1ncn2CCC(O)CCO (racemic) [RS-9-(3,5-dihydroxypentyl)adenine], the “Antiviral activity of congeners” value [1] was “did not demonstrate an antiviral activity”.
In the case of Nc1ncnc2c1ncn2C(CO)CO [2-(9-adeninyl)propane-1,3-diol], the “Antiviral activity of congeners” value [1] is reported as “did not demonstrate an antiviral activity”.
In the case of O=c1ccn(CCC(O)CCO)c(=O)[nH]1 (racemic) [RS-1-(3,5-dihydroxypentyl)uracil], the “Antiviral activity of congeners” value [1] is reported as “did not demonstrate an antiviral activity”.
For Nc1ncnc2c1ncn2CC(O)CO (racemic) [(RS)-DHPA, (RS)-9-(2,3-dihydroxypropyl)adenine], the “Antiviral activity of enantiomers and racemate” value [1] was “almost as effective as the (S)-enantiomer”, the “Antiviral activity of enantiomers and racemate” value ([1]; listed as RS-form) was “almost as effective as the S-form” and the “Stability in pure form” value (Stability) was “practically unlimited”. For the same compound, the “Stability (thermic sterilization of neutral, weakly acid or weakly alkaline solutions possible)” value (Stability) was “remarkable stability”.
For Nc1ncnc2c1ncn2CC(N)C(=O)O (racemic) [9-(β-DL-alanyl)-adenine], the “Antiviral activity of congeners” value [1] was “did not demonstrate an antiviral activity”.
With O=c1ccn(CC[C@H](O)CO)c(=O)[nH]1 [S-1-(3,4-dihydroxybutyl)-racil] the “Antiviral activity of congeners” value [1] was “did not demonstrate an antiviral activity”.
With Nc1ncnc2c1ncn2CC[C@H](O)CO [S-9-(3,4-dihydroxybutyl)adenine] the “Antiviral activity of congeners” value [1] was “did not demonstrate an antiviral activity”.
In the case of NCCn1cnc2c(N)ncnc21 [9-(2-aminoethyl)adenine], the “Antiviral activity of congeners” value [1] is reported as “did not demonstrate an antiviral activity”.
In the case of O=c1[nH]cnc2c1ncn2C[C@H](O)CO [S-9-(2,3-dihydroxypropyl)hypoxanthine], the “Antiviral activity of congeners” value [1] is reported as “did not demonstrate an antiviral activity”.
With Cc1cn(C[C@H](O)CO)c(=O)[nH]c1=O [S-1-(2,3-dihydroxypropyl)thymine] the “Antiviral activity of congeners” value [1] was “did not demonstrate an antiviral activity”.
In the case of Nc1ncnc2c1ncn2C[C@H](O)[C@@H](O)CO (relative stereo) [RS-threo-9-(2,3,4-trihydroxybutyl)adenine], the “Antiviral activity of congeners” value [1] is reported as “did not demonstrate an antiviral activity”.
For NC(=O)c1ncn([C@@H]2O[C@H](CO)[C@@H](O)[C@H]2O)n1 [ribavirin, (1-beta-D-ribofuranosyl)-1,2,4-triazole-3-carboxamide], the Antiviral activity (DNA viruses; RNA viruses) is given as “broad-spectrum antiviral activity”, the Safety margin ([2]; known from literature) is given as “rather narrow safety margin” and the Toxicity ([2]; known) is given as “high toxicity”.
For Nc1ncnc2c1ncn2CCO [9-(2-hydroxyethyl)adenine], the “Antiviral activity of congeners” value [1] was “did not demonstrate an antiviral activity”.
With CC(O)Cn1cnc2c(N)ncnc21 (racemic) [RS-9-(2-hydroxypropyl)adenine] the “Antiviral activity of congeners” value [1] was “did not demonstrate an antiviral activity”.
In the case of Cc1cn(C[C@@H](O)CO)c(=O)[nH]c1=O [R-1-(2,3-dihydroxypropyl)-thymine], the “Antiviral activity of congeners” value [1] is reported as “did not demonstrate an antiviral activity”.
For Nc1ncnc2c1ncn2C[C@H](O)CO [(S)-DHPA, (S)-9-(2,3-dihydroxypropyl)adenine], the EC50 (Vaccinia; Skin fibroblast) was 10 to 20 µg/mL (≈ 47.8 to 95.6 µM), the EC50 (Vaccinia; in Oryctolagus cuniculus) was 10 to 20 µg/mL (≈ 47.8 to 95.6 µM) and the EC50 (Vesicular stomatitis; HSF) was 2 to 7 µg/mL (≈ 9.56 to 33.5 µM). The EC50 (Vesicular stomatitis; HeLa) was over 200 µg/mL, the EC50 (Vesicular stomatitis; PRK) was 7 to 10 µg/mL (≈ 33.5 to 47.8 µM) and the EC50 (Polio-1; HSF) was over 200 µg/mL. It also gave an EC50 (Polio-1; HeLa) of over 200 µg/mL, an EC50 (Coxsackie B-4) of over 200 µg/mL and an EC50 (Measles) of 4 to 40 µg/mL (≈ 19.1 to 191 µM). It also gave an EC50 (Sindbis) of over 200 µg/mL, a log reduction at 100 µg/mL ([3]; 24 h) of about 4 and a log reduction at 100 µg/mL ([3]; 48 h) of about 4. For the same compound, the “Final number of surviving mice” value ([4]; 2 mg/mouse (about 133 mg/kg) i.p. at 1 h and 1, 2, 3, 4 days) was 67%, the “Increase in final number of surviving mice vs control” value ([4]; 2 mg/mouse i.p., repeated) was “significant increase” and the “Difference in number of survivors at 9 days vs control” value ([4]; 2 mg/mouse i.p., repeated, 9 days after infection) was “significant”. For the same compound, the Protection ([4]; repeated doses of 0.08 mg/mouse (about 5.4 mg/kg)) was “did not confer protection”, the Protection [4, 5] was “slight protection” and the “Final number of surviving mice” value [4, 5] was 55%. For the same compound, the “Survival in acute toxicity test (LD50 could not be determined)” value (Acute toxicity in mice; doses up to 1000 mg/kg/day for 3 to 5 days) was “all mice survived (without any sign of illness)”, the Acute toxicity (Acute toxicity in mice; general statement) was “very low acute toxicity” and the “Antiviral activity of enantiomers and racemate” value [1] was “active”. For the same compound, the “Concentration dependence of inhibition of ara-A deamination” value (adenosine deaminase; absorbance decrease at 265 nm) was “inhibited proportionally to the concentration of (S)-DHPA”, the “Inhibition of deamination of ara-A” value (adenosine deaminase; adenosine deaminase extracted from calf intestinal mucosa) was “strongly inhibited” and the Virus yield (vaccinia virus; [6]) was 3.6 log10 PFU/ml. The Virus yield (vaccinia virus; [7]) was 4.9 log10 PFU/ml, the Virus yield (vaccinia virus; [8]) was 5.4 log10 PFU/ml and the “Potentiation of antiviral activity of ara-A” value (vaccinia virus; PRK cells, vaccinia virus) was “markedly potentiated the antiviral activity of ara-A”. The “Stability in pure form” value (Stability) was “practically unlimited” and the “Stability (thermic sterilization of neutral, weakly acid or weakly alkaline solutions possible)” value (Stability) was “remarkable stability”.
In the case of Nc1ncnc2c1ncn2[C@@H]1O[C@H](CO)[C@@H](O)[C@@H]1O [ara-A, 9-(beta-D-arabinofuranosyl)-adenine, reference compound], the “Decrease in absorbance at 265 nm (extent of deamination)” value (adenosine deaminase; 50 nmol of ara-A) is reported as 0.11, the “Decrease in absorbance at 265 nm (extent of deamination)” value (adenosine deaminase; 100 nmol of ara-A) is reported as 0.16 and the Virus yield (vaccinia virus; [6]) is reported as 2.1 log10 PFU/ml. The Virus yield (vaccinia virus; [7]) was 4.0 log10 PFU/ml, the Virus yield (vaccinia virus; [8]) was 5.0 log10 PFU/ml and the Antiviral activity (DNA viruses; RNA viruses) was “marked antiviral activity but only for some DNA viruses”.
